Results taken from patent publication US20180042983A1, “THERAPEUTIC COMPOSITIONS INCLUDING MITOCHONDRIAL FISSION INHIBITOR PEPTIDES, VARIANTS THEREOF, AND METHODS OF USING THE SAME” (STEALTH PEPTIDES INTERNATIONAL, INC., priority 2015, published 2018).

What was measured:
[1] = system: several mammalian cell types; settings: cited from earlier work
neonatal cardiomyocytes = assay: Ang II-induced mitochondrial ROS in neonatal cardiomyocytes (Mitosox flow cytometry); assay type: cell-based, mouse; settings: after Ang II (1 μM, 3 hours)
Procedure: Ventricles from mouse neonates younger than 72 hours will be dissected, minced, and enzymatically digested with Blendzyme 4 (45 mg/mL, Roche). After enzymatic digestion, cardiomyocytes will be enriched using differential pre-plating for 2 hours, and seeded on fibronectin-coated culture dishes for 24 hours in DMEM (Gibco) with 20% Fetal Bovine Serum (Sigma) and 25 μM Arabinosylcytosine (Sigma). Cardiomyocytes will be stimulated with Angiotensin II (1 μM) for 3 hours in serum-free DMEM containing 0.5% insulin transferrin-selenium (Sigma), 2 mM glutamine, and 1 mg/mL BSA. […] To measure mitochondrial superoxide concentration, Mitosox ([…]) will be incubated for 30 minutes at 37° C. to load cardiomyocytes, followed by 2 washes with Hanks Balanced Salt Solution. Samples will be analyzed using excitation/emission of 488/625 nm by flow cytometry. Flow data will be analyzed using FCS Express (De Novo Software, Los Angeles, Calif., U.S.A.), and presented as histogram distributions of Mitosox fluorescence intensity.

Compound	penetration of the plasma membrane [1]	mitochondrial ROS (Mitosox fluorescence) (neonatal cardiomyocytes)
2′,6′-Dmt-D-Arg-Phe-Lys-NH2	readily penetrates the plasma membrane of several mammalian cell types in an energy-independent manner	–
CC(=O)N[C@@H](CS)C(=O)O [N-acetyl cysteine]	–	not show any effect
